# System: Z-138 cells
# Assay: In vitro cell activity, Z-138 cells, CellTiter-Glo
# Type: cell-based
# Conditions: Z-138, 168 h, human mantle cell lymphoma cells, 7 days
# Description: Test compounds: the compounds of the present invention prepared in the above example. Each compound was formulated into a 10 mM stock solution with DMSO, and finally diluted into 8 concentrations for detection, with the final concentrations being 33333.00 nM, 6666.60 nM, 1333.32 nM, 266.66 nM, 53.33 nM, 10.67 nM, 2.13 nM, and 0.43 nM for experiments in Z-138 cells.
# 2.1.1 Z-138 cell thawing: The cryovial for Z-138 cells was taken out from a liquid nitrogen tank and placed in a 37° C. water bath, and shaken gently for thawing as soon as possible. After thawing, the cryovial was taken out, and sterilized with an alcohol cotton ball, after which the cap was unscrewed. The cell fluid was drawn and injected into a centrifuge tube. 1 mL of complete medium containing 10% horse serum was added, and mixed uniformly. The tube was placed in a centrifuge, and centrifuged at 1000 rpm for 5 min. Afterwards, the supernatant was discarded, and complete medium was added. The mixture was pipetted repeatedly until the cells were completely dispersed and resuspended. The mixture was inoculated in a petri dish at an appropriate concentration, and cultured in a CO2 incubator at 37° C., 5% CO2, and 95% humidified air.
# 2.2.1 Z-138 cell culture and passage: The cells grew to about 80-90%. The medium (IMDM medium+10% horse serum+1% penicillin-streptomycin) was transferred to a 15 mL centrifuge tube, and centrifuged at 1000 rpm for 5 min. The supernatant was removed. The cells were resuspended in complete medium, and inoculated in a petri dish at the desired density. The dish was placed in an incubator at 37° C., 5% CO2, and 95% humid air. The culture medium was replenished every 2-3 days or the passage was carried out, depending on the cell growth.
# After passage, Z-138 cells were resuspended in complete medium at a density of 1000 cells/well and inoculated in a 96-well culture plate. The 36 wells at the outer circumference of the 96-well plate were filled with 200 μL of PBS to prevent the culture conditions of the inner plate wells from being too different from each other due to the faster evaporation of medium at the edge. The leftmost column of the 60 inner wells were blank wells, which were not added with cells, but filled with equal volume of PBS. The remaining 54 wells were subjected to cell plating with a multichannel pipette, to each well was added 100 μL of culture medium containing corresponding cells. After cell plating was finished, the 96-well plate was tapped to make the cells evenly suspended, and placed in a 5% CO2 incubator and cultured at 37° C. for 24 h.
# For Z-138 cells, in addition to the original medium (100 μL), 50 μL (3×) of drug was added, and duplicate wells were set for each concentration group. The plate was placed in a CO2 incubator and further cultured for 7 days. […]
row,Compound,IC50 [nM]
1,"CC(=O)N1CC2(CC(Nc3cc4c(cn3)C3(CC3)CN(C[C@H](O)CN3CCc5ccccc5C3)C4=O)C2)C1 [Example 2, (R)-7′-((2-acetyl-2-azaspiro[3.3]hept-6-yl)amino)-2′-(3-(3,4-dihydroisoquinolin-2(1H)-yl)-2-hydroxypropyl)-2′,3′-dihydro-1′H-spiro[cyclopropane-1,4′-[2,6]naphthyridin]-1-one]",2.2
2,"CC(=O)N1CCC(Nc2cc(C(=O)NC[C@H](O)CN3CCc4ccccc4C3)ncn2)CC1 [Compound A, (S)-6-((1-Acetylpiperidin-4-yl)amino)-N-(3-(3,4-dihydroisoquinolin-2(1H)-yl)-2-hydroxypropyl)pyrimidine-4-carboxamide]",19.5
3,"CC(=O)N1CCC(Nc2cc3c(cn2)C2(CC2)CN(C[C@H](O)CN2CCc4ccccc4C2)C3=O)CC1 [Example 1, (R)-7′-((1-acetylpiperidin-4-yl)amino)-2′-(3-(3,4-dihydroisoquinolin-2(1H)-yl)-2-hydroxypropyl)-2′,3′-dihydro-1′H-spiro[cyclopropane-1,4′-[2,6]naphthyridin]-1′-one]",3.07
4,"CC(=O)N1CCC(Nc2ccc3c(c2)C(=O)N(C[C@H](O)CN2CCc4ccccc4C2)CC32CC2)CC1 [Compound B, (R)-7′-((1-Acetylpiperidin-4-yl)amino)-2′-(3-(3,4-dihydroisoquinolin-2(1H)-yl)-2-hydroxypropyl)-2′,3′-dihydro-1′H-spiro[cyclopropane-1,4′-isoquinolin]-1′-one, reference compound]",4.33
